Experimental data: article PMC10412597, “Small molecule branched-chain ketoacid dehydrogenase kinase (BDK) inhibitors with opposing effects on BDK protein levels” (Nature Communications, 2023)

Key:
Set-up in all cases: Cerep Bioprint off-target panel, functional receptor agonism or antagonism
[1] = molecular target: T1, Thyrotopin Releasing Hormone 1 (TRH1) Receptor (Homo sapiens, UniProt P34981)
T1 construct: gene TRHR
T1 sequence (P34981 1-398): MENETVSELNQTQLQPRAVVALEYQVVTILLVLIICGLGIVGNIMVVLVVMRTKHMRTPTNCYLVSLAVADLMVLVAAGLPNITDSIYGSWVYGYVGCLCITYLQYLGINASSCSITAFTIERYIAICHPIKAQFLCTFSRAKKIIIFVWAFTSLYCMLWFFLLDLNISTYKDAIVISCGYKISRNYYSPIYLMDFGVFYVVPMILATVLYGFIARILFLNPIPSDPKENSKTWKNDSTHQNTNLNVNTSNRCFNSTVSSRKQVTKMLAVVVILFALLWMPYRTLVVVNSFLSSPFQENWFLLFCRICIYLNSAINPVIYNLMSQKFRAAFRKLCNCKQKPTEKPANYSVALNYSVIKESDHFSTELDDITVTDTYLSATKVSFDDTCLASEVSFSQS
Description: (§1) To discover a potent and selective BDK inhibitor, a subset of the Pfizer compound collection was screened. […] Off target activity was assessed in both CEREP and kinase panels (Supplementary Tables 2, 3).

Adenosine A1 Receptor = molecular target: T2, Adenosine A1 Receptor (Homo sapiens, UniProt P30542); settings: agonist
T2 construct: gene ADORA1
T2 sequence (P30542 whole entry): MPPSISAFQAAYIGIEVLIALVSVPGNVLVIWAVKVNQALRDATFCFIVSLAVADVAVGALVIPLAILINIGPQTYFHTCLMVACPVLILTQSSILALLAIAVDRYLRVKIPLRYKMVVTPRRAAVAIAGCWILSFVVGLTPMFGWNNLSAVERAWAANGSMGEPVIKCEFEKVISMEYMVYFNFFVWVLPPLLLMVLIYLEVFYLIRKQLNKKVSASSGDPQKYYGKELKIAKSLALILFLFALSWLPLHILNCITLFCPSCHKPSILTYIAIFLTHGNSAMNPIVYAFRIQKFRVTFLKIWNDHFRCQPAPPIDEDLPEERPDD
Description: as §1

[2] = molecular target: T3, Serotonin 5-HT1b Receptor (Homo sapiens, UniProt P28222); settings: agonist
T3 construct: gene HTR1B
T3 sequence (P28222 whole entry): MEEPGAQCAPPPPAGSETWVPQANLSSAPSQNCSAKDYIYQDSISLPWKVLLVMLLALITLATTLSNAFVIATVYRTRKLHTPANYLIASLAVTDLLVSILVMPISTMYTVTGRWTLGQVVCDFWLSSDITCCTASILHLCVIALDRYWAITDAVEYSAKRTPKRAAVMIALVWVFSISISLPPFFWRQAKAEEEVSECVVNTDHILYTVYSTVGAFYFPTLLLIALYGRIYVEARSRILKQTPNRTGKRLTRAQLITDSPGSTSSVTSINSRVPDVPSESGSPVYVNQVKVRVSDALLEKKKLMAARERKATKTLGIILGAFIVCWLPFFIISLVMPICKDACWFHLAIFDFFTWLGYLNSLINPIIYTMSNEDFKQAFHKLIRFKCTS
Description: as §1

Histamine H1 = molecular target: T4, Histamine H1 (Homo sapiens, UniProt P35367)
T4 construct: gene HRH1
T4 sequence (P35367 whole entry): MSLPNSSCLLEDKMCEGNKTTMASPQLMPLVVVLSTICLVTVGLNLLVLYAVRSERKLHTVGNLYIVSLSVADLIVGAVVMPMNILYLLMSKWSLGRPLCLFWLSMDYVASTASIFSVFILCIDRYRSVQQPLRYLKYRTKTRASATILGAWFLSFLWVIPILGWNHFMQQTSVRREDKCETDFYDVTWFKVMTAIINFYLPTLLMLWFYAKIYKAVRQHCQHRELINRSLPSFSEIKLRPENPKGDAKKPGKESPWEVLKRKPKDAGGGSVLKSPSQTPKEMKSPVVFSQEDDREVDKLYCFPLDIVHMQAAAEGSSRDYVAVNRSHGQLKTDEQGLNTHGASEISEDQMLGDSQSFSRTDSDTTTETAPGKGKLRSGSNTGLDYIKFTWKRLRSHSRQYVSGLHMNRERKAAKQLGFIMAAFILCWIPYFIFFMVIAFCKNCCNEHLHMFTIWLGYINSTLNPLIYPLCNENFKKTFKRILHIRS
Description: as §1

Endothelin A = molecular target: T5, Endothelin A (Homo sapiens, UniProt P25101); settings: agonist
T5 construct: gene EDNRA
T5 sequence (P25101 whole entry): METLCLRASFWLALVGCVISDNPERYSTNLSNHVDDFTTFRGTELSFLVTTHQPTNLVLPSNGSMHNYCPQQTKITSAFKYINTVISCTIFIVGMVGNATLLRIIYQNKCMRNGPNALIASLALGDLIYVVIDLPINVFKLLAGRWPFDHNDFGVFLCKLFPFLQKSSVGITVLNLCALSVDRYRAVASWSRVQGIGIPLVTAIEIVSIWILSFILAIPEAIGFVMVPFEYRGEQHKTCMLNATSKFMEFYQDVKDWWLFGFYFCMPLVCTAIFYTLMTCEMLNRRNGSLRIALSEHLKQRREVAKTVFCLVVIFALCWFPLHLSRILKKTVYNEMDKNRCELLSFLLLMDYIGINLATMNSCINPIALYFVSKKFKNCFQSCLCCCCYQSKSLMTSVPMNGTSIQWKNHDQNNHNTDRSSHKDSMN
Description: as §1

Adenosine A2a Receptor = molecular target: T6, Adenosine A2a Receptor (Homo sapiens, UniProt P29274); settings: agonist
T6 construct: gene ADORA2A
T6 sequence (P29274 whole entry): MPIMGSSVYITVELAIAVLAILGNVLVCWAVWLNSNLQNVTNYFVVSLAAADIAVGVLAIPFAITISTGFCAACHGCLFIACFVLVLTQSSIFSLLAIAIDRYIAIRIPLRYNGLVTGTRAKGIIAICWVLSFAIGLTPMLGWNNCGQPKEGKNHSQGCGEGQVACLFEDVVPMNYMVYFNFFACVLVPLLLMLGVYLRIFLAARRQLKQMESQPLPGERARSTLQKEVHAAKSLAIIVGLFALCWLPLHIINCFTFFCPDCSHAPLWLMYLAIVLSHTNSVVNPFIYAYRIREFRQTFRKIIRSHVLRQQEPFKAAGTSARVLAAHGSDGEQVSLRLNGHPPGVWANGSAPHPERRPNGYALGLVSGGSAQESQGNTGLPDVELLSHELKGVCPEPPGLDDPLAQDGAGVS
Description: as §1

[3] = molecular target: T7, Melanocortin MC2 Receptor (Homo sapiens, UniProt Q01718)
T7 construct: gene MC2R
T7 sequence (Q01718 whole entry): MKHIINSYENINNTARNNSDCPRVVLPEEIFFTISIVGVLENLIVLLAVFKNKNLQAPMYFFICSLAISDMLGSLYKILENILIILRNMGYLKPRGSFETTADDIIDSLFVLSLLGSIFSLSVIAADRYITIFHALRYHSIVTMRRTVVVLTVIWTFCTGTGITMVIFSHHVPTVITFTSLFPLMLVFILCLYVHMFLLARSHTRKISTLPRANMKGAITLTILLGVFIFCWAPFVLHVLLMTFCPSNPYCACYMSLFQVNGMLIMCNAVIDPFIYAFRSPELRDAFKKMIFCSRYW
Description: as §1

Cannabinoid CB1 = molecular target: T8, Cannabinoid CB1 (Homo sapiens, UniProt P21554)
T8 construct: gene CNR1
T8 sequence (P21554 whole entry): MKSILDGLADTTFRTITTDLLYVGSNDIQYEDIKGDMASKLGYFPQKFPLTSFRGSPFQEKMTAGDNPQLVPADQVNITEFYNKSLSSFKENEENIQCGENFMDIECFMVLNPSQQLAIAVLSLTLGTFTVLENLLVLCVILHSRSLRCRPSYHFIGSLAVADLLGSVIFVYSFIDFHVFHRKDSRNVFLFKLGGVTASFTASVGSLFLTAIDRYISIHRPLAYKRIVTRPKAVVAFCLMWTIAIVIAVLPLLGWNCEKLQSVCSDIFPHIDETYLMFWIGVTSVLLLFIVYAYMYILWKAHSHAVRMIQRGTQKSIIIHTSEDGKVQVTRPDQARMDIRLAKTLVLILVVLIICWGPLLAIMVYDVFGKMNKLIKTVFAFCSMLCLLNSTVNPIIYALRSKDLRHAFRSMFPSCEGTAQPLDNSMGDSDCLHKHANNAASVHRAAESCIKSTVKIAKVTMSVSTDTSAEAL
Description: as §1

[4] = molecular target: T9, Corticotrophin Releasing Factor 1 (CRF1) Receptor (Homo sapiens, UniProt P34998)
T9 construct: gene CRHR1
T9 sequence (P34998 1-415): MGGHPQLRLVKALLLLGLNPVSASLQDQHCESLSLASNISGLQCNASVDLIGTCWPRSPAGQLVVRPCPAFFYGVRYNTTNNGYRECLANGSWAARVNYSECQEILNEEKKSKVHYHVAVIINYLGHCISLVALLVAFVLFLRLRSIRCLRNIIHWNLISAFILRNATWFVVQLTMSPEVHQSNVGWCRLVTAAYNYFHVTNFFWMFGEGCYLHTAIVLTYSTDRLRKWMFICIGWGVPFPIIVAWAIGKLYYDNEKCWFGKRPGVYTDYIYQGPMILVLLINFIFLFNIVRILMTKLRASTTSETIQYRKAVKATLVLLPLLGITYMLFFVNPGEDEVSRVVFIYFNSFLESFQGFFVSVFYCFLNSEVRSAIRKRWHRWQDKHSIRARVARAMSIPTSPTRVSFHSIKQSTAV
Description: as §1

Mu Opioid = molecular target: T10, Mu Opioid (Homo sapiens, UniProt P35372); settings: agonist
T10 construct: gene OPRM1
T10 sequence (P35372 whole entry): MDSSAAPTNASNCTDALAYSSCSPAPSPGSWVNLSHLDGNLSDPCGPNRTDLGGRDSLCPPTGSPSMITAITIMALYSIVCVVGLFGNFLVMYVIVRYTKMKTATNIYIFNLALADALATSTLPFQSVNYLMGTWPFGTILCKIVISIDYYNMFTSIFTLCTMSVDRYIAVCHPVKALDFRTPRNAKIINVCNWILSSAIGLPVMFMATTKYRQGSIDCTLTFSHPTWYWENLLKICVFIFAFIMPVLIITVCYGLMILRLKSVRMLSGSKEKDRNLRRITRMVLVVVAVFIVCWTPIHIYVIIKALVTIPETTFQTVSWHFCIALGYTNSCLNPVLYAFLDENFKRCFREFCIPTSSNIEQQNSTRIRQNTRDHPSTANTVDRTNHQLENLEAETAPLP
Description: as §1

Delta Opioid Receptor = molecular target: T11, Delta Opioid Receptor (Homo sapiens, UniProt P41143); settings: agonist
T11 construct: gene OPRD1
T11 sequence (P41143 whole entry): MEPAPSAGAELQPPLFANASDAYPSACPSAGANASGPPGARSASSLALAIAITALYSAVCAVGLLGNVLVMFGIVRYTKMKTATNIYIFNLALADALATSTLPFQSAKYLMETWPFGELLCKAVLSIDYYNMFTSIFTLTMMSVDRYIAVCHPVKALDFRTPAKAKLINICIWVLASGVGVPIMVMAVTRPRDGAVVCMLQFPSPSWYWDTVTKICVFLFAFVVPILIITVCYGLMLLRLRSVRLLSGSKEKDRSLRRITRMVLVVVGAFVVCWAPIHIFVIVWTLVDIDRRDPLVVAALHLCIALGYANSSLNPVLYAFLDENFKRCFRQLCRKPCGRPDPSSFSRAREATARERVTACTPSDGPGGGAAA
Description: as §1

[5] = molecular target: T12, Serotonin 5-HT1a Receptor (Homo sapiens, UniProt P08908); settings: agonist
T12 construct: gene HTR1A
T12 sequence (P08908 whole entry): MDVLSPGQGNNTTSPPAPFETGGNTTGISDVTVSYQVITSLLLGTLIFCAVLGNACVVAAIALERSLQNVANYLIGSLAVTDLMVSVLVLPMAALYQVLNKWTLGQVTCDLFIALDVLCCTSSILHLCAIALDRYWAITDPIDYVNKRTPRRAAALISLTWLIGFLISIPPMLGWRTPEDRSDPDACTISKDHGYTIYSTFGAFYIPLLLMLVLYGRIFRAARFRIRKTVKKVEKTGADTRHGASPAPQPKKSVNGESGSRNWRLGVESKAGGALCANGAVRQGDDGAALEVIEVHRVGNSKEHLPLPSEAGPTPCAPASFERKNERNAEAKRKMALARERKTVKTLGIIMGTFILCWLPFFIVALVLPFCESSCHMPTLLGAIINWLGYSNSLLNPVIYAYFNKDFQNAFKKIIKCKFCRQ
Description: as §1

[6] = molecular target: T13, Adrenergic Alpha 2b Adrenoceptor (Homo sapiens, UniProt P18089)
T13 construct: gene ADRA2B
T13 sequence (P18089 1-450): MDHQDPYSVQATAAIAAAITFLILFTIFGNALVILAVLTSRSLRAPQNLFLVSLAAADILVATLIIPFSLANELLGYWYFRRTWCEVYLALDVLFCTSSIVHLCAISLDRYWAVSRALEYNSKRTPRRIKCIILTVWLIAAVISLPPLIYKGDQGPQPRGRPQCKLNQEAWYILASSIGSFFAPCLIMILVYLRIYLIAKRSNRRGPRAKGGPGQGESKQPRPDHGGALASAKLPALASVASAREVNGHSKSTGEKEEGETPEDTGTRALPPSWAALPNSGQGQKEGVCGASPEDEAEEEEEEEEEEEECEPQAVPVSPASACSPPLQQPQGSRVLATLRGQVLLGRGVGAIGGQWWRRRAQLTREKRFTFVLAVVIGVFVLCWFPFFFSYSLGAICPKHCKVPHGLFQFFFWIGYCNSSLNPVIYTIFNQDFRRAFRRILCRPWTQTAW
Description: as §1

Kappa Opioid = molecular target: T14, Kappa Opioid (Homo sapiens, UniProt P41145); settings: agonist
T14 construct: gene OPRK1
T14 sequence (P41145 whole entry): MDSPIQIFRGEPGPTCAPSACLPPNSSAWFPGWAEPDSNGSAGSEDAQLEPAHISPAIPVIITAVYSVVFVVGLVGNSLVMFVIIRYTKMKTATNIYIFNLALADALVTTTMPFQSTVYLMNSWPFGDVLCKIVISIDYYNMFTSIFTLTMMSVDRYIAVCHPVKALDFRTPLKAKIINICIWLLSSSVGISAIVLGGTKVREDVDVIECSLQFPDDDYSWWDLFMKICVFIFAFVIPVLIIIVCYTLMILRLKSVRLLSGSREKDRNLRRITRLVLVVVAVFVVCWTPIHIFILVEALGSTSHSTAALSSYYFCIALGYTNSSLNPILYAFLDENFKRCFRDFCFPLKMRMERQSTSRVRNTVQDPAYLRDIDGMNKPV
Description: as §1

Serotonin 5-HT4e = molecular target: T15, Serotonin 5-HT4e (Homo sapiens, UniProt Q13639); settings: agonist
T15 construct: gene HTR4; isoform 4e
T15 sequence (Q13639 whole entry, canonical isoform): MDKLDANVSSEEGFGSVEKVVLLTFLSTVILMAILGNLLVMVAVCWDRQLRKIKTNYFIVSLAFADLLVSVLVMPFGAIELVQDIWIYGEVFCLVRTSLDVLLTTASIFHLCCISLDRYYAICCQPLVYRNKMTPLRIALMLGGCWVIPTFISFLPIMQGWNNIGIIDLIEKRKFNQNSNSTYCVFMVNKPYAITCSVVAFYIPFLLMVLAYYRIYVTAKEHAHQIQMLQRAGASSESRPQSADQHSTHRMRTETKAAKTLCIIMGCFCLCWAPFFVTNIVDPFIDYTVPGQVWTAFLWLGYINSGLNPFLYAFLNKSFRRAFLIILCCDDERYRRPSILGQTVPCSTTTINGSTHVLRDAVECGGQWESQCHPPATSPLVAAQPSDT
Description: as §1

CCC1(COc2ccc(-c3csc(-c4ccccc4C(=O)O)n3)cn2)CC1 [PF-07247685, 2-(4-{6-[(1-ethylcyclopropyl)methoxy]pyridin-3-yl}-1,3-thiazol-2-yl)benzoic acid]
% (agonism) PF-07247685 ([1]; 10 µM, agonist): 4% | % Inhibition (antagonism) PF-07247685 ([1]; 10 µM, antagonist): 10% | % (agonism) PF-07247685 (Adenosine A1 Receptor; 10 µM): 0% | % (agonism) PF-07247685 ([2]; 10 µM): 34% | % (agonism) PF-07247685 (Histamine H1; 10 µM, agonist): -5% | % Inhibition (antagonism) PF-07247685 (Histamine H1; 10 µM, antagonist): -2% | % (agonism) PF-07247685 (Endothelin A; 10 µM): -4% | % (agonism) PF-07247685 (Adenosine A2a Receptor; 10 µM): 1% | % (agonism) PF-07247685 ([3]; 10 µM, agonist): 0% | % Inhibition (antagonism) PF-07247685 ([3]; 10 µM, antagonist): 18% | % (agonism) PF-07247685 (Cannabinoid CB1; 10 µM, agonist): 39% | % Inhibition (antagonism) PF-07247685 (Cannabinoid CB1; 10 µM, antagonist): -4% | % (agonism) PF-07247685 ([4]; 10 µM, agonist): 4% | % Inhibition (antagonism) PF-07247685 ([4]; 10 µM, antagonist): 11% | % (agonism) PF-07247685 (Mu Opioid; 10 µM): -3% | % (agonism) PF-07247685 (Delta Opioid Receptor; 10 µM): -1% | % (agonism) PF-07247685 ([5]; 10 µM): -1% | % (agonism) PF-07247685 ([6]; 10 µM, agonist): -1% | % Inhibition (antagonism) PF-07247685 ([6]; 10 µM, antagonist): -1% | % (agonism) PF-07247685 (Kappa Opioid; 10 µM): -7% | % (agonism) PF-07247685 (Serotonin 5-HT4e; 10 µM): 0%

O=C(O)c1sc2cc(F)sc2c1Cl [PF-07208254, 3-chloro-5-fluorothieno[3,2-b]thiophene-2-carboxylic acid]
% (agonism) PF-07208254 ([1]; 100 µM, agonist): 4% | % Inhibition (antagonism) PF-07208254 ([1]; 100 µM, antagonist): -5% | % (agonism) PF-07208254 (Adenosine A1 Receptor; 100 µM): 0% | % (agonism) PF-07208254 ([2]; 100 µM): 39% | % (agonism) PF-07208254 (Histamine H1; 100 µM, agonist): -1% | % Inhibition (antagonism) PF-07208254 (Histamine H1; 100 µM, antagonist): 17% | % (agonism) PF-07208254 (Endothelin A; 100 µM): 4% | % (agonism) PF-07208254 (Adenosine A2a Receptor; 100 µM): 0% | % (agonism) PF-07208254 ([3]; 100 µM, agonist): 0% | % Inhibition (antagonism) PF-07208254 ([3]; 100 µM, antagonist): -4% | % (agonism) PF-07208254 (Cannabinoid CB1; 100 µM, agonist): 55% | % Inhibition (antagonism) PF-07208254 (Cannabinoid CB1; 100 µM, antagonist): -10% | % (agonism) PF-07208254 ([4]; 100 µM, agonist): -2% | % Inhibition (antagonism) PF-07208254 ([4]; 100 µM, antagonist): 39% | % (agonism) PF-07208254 (Mu Opioid; 100 µM): 16% | % (agonism) PF-07208254 (Delta Opioid Receptor; 100 µM): -2% | % (agonism) PF-07208254 ([5]; 100 µM): -1% | % (agonism) PF-07208254 ([6]; 100 µM, agonist): -4% | % Inhibition (antagonism) PF-07208254 ([6]; 100 µM, antagonist): -2% | % (agonism) PF-07208254 (Kappa Opioid; 100 µM): -3% | % (agonism) PF-07208254 (Serotonin 5-HT4e; 100 µM): 6%
